Data on one compound can be found in paper PMC8648872, “A host-directed macrocyclic peptide therapeutic for MDR gram negative bacterial infections” (Scientific Reports, 2021).

Where a SMILES comes first, the peptide text is derived from it. Bridges are numbered along the chain shown (N, C = ends).

Test [1] in a line: LPS neutralization, limulus amebocyte lysate assay. Type of test: biochemical. As to conditions: 0.5 EU/ml LPS, 0.078–5 μg/ml, 37 °C, 30 min; data not shown. The procedure:
A limulus amebocyte lysate endotoxin detection assay (Pierce A39553) protocol was employed by preincubating 0.5 EU/ml of LPS with either MTD12813, RTD-1, or colistin (0.078–5 μg/ml) in H20 at 37 °C for 30 min followed by quantifying free LPS per manufacturer’s instructions. All samples were compared to a LPS standard curve to determine the degree of LPS neutralization.

The subject of test [2] is Kp-1705 (K. pneumoniae BAA-1705). In words: Kp-1705 bacteremic sepsis, survival. Type of test: in vivo, BALB/c mice. Conditions: for long term (≥ 28 days) survival: Kp-1705 i.p. in BALB/c mice. The procedure: BALB/c mice (Jackson Laboratories) 8–10 weeks of age were acclimated (3–5 to a cage for at least 5 days prior to infection) in a thermostatically controlled room with 12 h light/dark cycle. Cryopreserved K. pneumoniae cells were thawed and adjusted to a density of 6–10 × 10^8 CFU/ml, confirmed by plating on trypticase soy agar (TSA) plates. E. coli BAA-2340 was grown to log-phase in trypticase soy broth, pelleted, washed with PBS, and resuspended in PBS at 0.5–1 × 10^9 CFU/ml. Mice were infected by i.p. injection of 2–5 × 10^8 CFU of Kp-1705 or 3–6 × 10^7 CFU of E. coli BAA-2340 using a 28 g needle in a volume of 0.5 ml. Post-infection, mice were observed three times a day for at least 4 days and then daily for 28 days. Mice were euthanized when they became moribund. All experiments used both male and female mice and were repeated at least twice.

With `CC[C@H](C)[C@@H]1NC(=O)[C@@H]2CSSC[C@H](NC(=O)[C@H]([C@@H](C)CC)NC(=O)[C@@H]3CSSC[C@H](NC1=O)C(=O)N[C@@H](C(C)C)C(=O)NCC(=O)N[C@@H](CCCNC(=N)N)C(=O)NCC(=O)N3)C(=O)N[C@@H](C(C)C)C(=O)N[C@@H](CCCNC(=N)N)C(=O)N[C@@H](CCCNC(=N)N)C(=O)N[C@@H](CCCNC(=N)N)C(=O)N2` [MTD12813] (cyclo(CICVGRGCICVRRR); disulfide 1-10, 3-8), the “LPS inhibition (neutralization)” value in test [1] was “No LPS inhibition”. Moreover, the “long term (≥ 28 days) survival” value in test [2] (single i.p. dose 1.25 mg/kg 1 h p.i.) and in test [2] (single i.p. dose 5 mg/kg 1 h p.i.) was 100% throughout. Moreover, the “long term survival, timing of treatment” value is recorded as “survived long term” in test [2] (Kp-1705 i.p., single i.p. 1.25 mg/kg 1 h after infection (+1 h)); “survived long term” in test [2] (Kp-1705 i.p., single i.p. 1.25 mg/kg 1 h before infection (−1 h)); “half” in test [2] (Kp-1705 i.p., single i.p. 1.25 mg/kg 3 h after infection (+3 h), P = 3.9 × 10^–3); “nearly equivalent efficacy” in test [2] (Kp-1705 i.p., single i.p. 1.25 mg/kg 3 h prior to infection (−3 h)). Also, in test [2] (Kp-1705 i.p., single i.p. dose 0.5 mg/kg 1 h p.i., P = 1.1 × 10^–3), the “survival benefit versus saline” value is on record as “survival benefit was still statistically significant”.
